Measured values published in patent US20060111556A1, “Preventives/remedies for neurodegenerative diseases” (priority 2002, published 2006).

Key:
[1] = system: neuronal cell death inducible putative kinase (NIPK) gene; test: NIPK gene expression analysis by oligonucleotide microarray after endoplasmic reticulum stress; format: cell-based; details: rat primary nerve cells, medial expression level taken as 1
Description: Rat primary nerve cells prepared from CD rat (Charles River Japan, Inc.) of TP-17 were suspended in B27-supplemented Neurobasal medium (NB medium: GIBCO) charged in a type I collagen-coated 24-well plate and then plated at 250,000 cells/well, followed by culturing for 3 days.
(i) Tunicamycin (Tnc) was added to the culture cells above in a final concentration of 100 nM, (ii) thapsigargin (Thap) was added to the culture cells above in a final concentration of 2 nM, or (iii) the culture cells described above were cultured in glucose-free B27-suplemented DMEM medium with 2 medium changes and then 2-deoxyglucose (2DG) was added in 3 mM. The total RNA was extracted from the cells 4, 8 and 24 hours, respectively, in accordance with the operating manual using RNeasy Mini kit (Qiagen). Cells added to the respective media (drug-free cells) in place of the drugs above (Tnc, Thap and 2DG) were used for control. Using the oligonucleotide microarray (Rat Genome U34A; Affymetrix Corp.), gene expression analysis was conducted on these materials.
The experimental method was carried out in accordance with the expression analysis technical manual of Affymetrix Corp. Gene expression profiles were compared between the cells stimulated with each drug and the cells with no drug. […] (TABLE 1).

NIPK gene = NIPK gene expression analysis by oligonucleotide microarray after β amyloid stimulation; format: cell-based; details: rat primary nerve cells, β amyloid 25 μM, 24 hours after stimulation, medial expression level taken as 1
Description: In order to examine if […] stimulation would affect the expression of NIPK gene with enhanced expression by endoplasmic reticulum stress, gene expression analysis was performed as in EXAMPLE 1, using cells stimulated with β amyloid.
Rat primary nerve cells prepared as in EXAMPLE 1 were suspended in N2-supplemented DMEM medium (GIBCO) and then plated at 250,000 cells/well, followed by incubation for 4 days. After the incubation, β amyloid suspended in the medium above in a final concentration of 25 μM was added to the medium. As in EXAMPLE 1, the total RNA was extracted from the cells 4, 8 and 24 hours after the addition and provided for gene analysis. For control, the cells to which the medium described above was added instead of β amyloid were used. Expression of NIPK was more enhanced in the cells stimulated with β, when compared to control (TABLE 2).

Akt1 = target: T1, Akt1 (Homo sapiens, UniProt P31749); test: Immunoprecipitation with anti-V5 antibody and western blotting with anti-Akt1 antibody; format: binding; details: V5-tagged NIPK and Akt1 co-expressed in COS7 cells; control GFP and Akt1
T1 construct: expressed in transfected cells; host or cells: COS7 cells
T1 sequence (P31749 whole entry): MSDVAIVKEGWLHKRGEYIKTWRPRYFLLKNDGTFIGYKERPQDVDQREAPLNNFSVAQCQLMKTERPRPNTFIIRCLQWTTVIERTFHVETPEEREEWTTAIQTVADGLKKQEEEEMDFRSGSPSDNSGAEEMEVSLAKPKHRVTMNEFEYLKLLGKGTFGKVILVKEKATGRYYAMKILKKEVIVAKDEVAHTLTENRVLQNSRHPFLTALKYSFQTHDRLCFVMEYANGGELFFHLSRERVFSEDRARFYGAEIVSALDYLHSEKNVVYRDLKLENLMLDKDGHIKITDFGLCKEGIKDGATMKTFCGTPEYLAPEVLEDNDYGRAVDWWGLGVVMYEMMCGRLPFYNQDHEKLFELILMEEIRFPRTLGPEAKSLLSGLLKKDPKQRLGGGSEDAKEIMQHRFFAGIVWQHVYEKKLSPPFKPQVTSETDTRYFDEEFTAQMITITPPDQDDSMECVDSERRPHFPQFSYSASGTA
Description: Using human NIPK cloned into pCDNA3.1-/V5-His TOPO (Invitrogen) vector (EXAMPLE 3) as a template, PCR was carried out with synthetic primers (SEQ ID NO: 3 and SEQ ID NO: 23) and Pfu turbo (Stratagene) as an enzyme under the conditions (1)-(3) to obtain the specific PCR product. • (1) 94° C. for 5 minutes • (2) 94° C. for 30 seconds—60° C. for 30 seconds—72° C. for 1 minute, 25 time • (3) 72° C. for 5 minutes
The PCR product obtained was cloned into pCDNA3.1-/V5-His TOPO (Invitrogen) to transfect Escherichia coli DH5α. The resulting colony was cultured in LB medium to recover V5-tagged human NIPK gene expression vector.
Akt1 gene expression vector was prepared by the following procedures. Using Quick-clone human whole brain cDNA (Clontech) as a template, PCR was carried out with synthetic primers (SEQ ID NO: 24 and SEQ ID NO: 25) and Pfu turbo (Stratagene) as an enzyme under the conditions (1)-(3) below to obtain the specific PCR product. • (1) 94° C. for 5 minutes • (2) 94° C. for 30 seconds—58° C. for 30 seconds—72° C. for 2 minutes, 35 times • (3) 72° C. for 5 minutes […]

O=CC[C@@H](O)[C@H](O)[C@H](O)CO [2DG, 2-deoxyglucose]
Gene Expression Level ([1]; glucose-free medium, 2-deoxyglucose 3 mM, 4 hours after addition): 0.72
Gene Expression Level ([1]; glucose-free medium, 2-deoxyglucose 3 mM, 8 hours after addition): 1.79
Gene Expression Level ([1]; glucose-free medium, 2-deoxyglucose 3 mM, 24 hours after addition): 2.45

C/C=C(/C)C(=O)O[C@H]1C(C)=C2[C@H]([C@@H]1OC(=O)CCCCCCC)[C@@](C)(OC(C)=O)C[C@H](OC(=O)CCC)[C@@]1(O)[C@H]2OC(=O)[C@@]1(C)O [Thap, thapsigargin]
Gene Expression Level ([1]; thapsigargin 2 nM, 4 hours after stimulation): 0.93
Gene Expression Level ([1]; thapsigargin 2 nM, 8 hours after stimulation): 2.70
Gene Expression Level ([1]; thapsigargin 2 nM, 24 hours after stimulation): 1.64

Tunicamycin [Tnc]
Gene Expression Level ([1]; tunicamycin 100 nM, 4 hours after stimulation): 0.41
Gene Expression Level ([1]; tunicamycin 100 nM, 8 hours after stimulation): 1.64
Gene Expression Level ([1]; tunicamycin 100 nM, 24 hours after stimulation): 1.32

β amyloid
Gene Expression Level (NIPK gene): 0.34

B1: NIPK: human neuronal cell death inducible putative kinase, amino acid sequence SEQ ID NO: 1; V5-tagged, expressed in COS7 cells (protein)
chain: MRATPLAAPAGSLSRKKRLELDDNLDTERPVQKRARSGPQPRLPPCLLPLSPPTAPDRATAVATASRLGPYVLLEPEEGGRAYQALHCPTGTEYTCKVYPVQEALAVLEPYARLPPHKHVARPTEVLAGTQLLYAFFTRTHGDMHSLVRSRHRIPEPEAAVLFRQMATALAHCHQHGLVLRDLKLCRFVFADRERKKLVLENLEDSCVLTGPDDSLWDKHACPAYVGPEILSSRASYSGKAADVWSLGVALFTMLAGHYPFQDSEPVLLFGKIRRGAYALPAGLSAPARCLVRCLLRREPAERLTATGILLHPWLRQDPMPLAPTRSHLWEAAQVVPDGLGLDEAREEEGDREVVLYG
modifications: V5 tag; Homo sapience
notes: V5-tagged, expressed in COS7 cells
binding to Akt1 within the cells (Akt1): bound to Akt1
